Measurements as given in patent US20220143179A1, “DRUG DELIVERY FOR COMBINATION OF EPIGENETIC MODULATION AND IMMUNE CHECKPOINT BLOCKADE” (NORTH CAROLINA STATE UNIVERSITY, priority 2019, published 2022).
Read-outs that look alike come from different tables or passages of the source.

System: B16F10 melanoma cells
Test: MTT assay, cytotoxicity of hypomethylating agents
Assay type: cell-based
Settings: Mus musculus, read-out: IC50 against B16F10 melanoma cells
Method: First, MTT assays were conducted to compare the cytotoxicity among these agents and determine the appropriate concentration to induce the expression of TAAs.
B16F10 cells were cultured into 96-well plates at a density of 5×10^3 cells per well overnight. […] Finally, the rate of cell viability was calculated according to the absorbance at 560 nm by a plate reader (Power Wave XS, Bio-TEK, USA).

SMILES | IC50 (B16-F10, MTT, 72 h incubation) | IC50 (B16-F10, 72 h)
Nc1ncn([C@@H]2O[C@H](CO)[C@@H](O)[C@H]2O)c(=O)n1 [AC, 5-Azacytidine] | 49 µM | 
O=c1ncccn1[C@@H]1O[C@H](CO)[C@@H](O)[C@H]1O [Zeb, Zebularine] | 69.2 µM | 
Nc1nc(=O)n([C@H]2C[C@H](O)[C@@H](CO)O2)cc1F [5-F, 5-Fluoro-2′-deoxycytidine] | 1.05 µM | 
Nc1ncn([C@H]2C[C@H](O)[C@@H](CO)O2)c(=O)n1 [DAC, 5-Aza-2′-deoxycytidine] |  | 2.55 µM
